Test results as given in patent US20250145665A1, “MACROCYCLIC PEPTIDES USEFUL AS MODULATORS OF TNF ALPHA” (Bristol-Myers Squibb Company, priority 2023, published 2025).
Positions of bridges follow the written chain, without caps; N, C: chain ends. Non-standard residues stand in square brackets, D forms with d. Residues, ends and D or L forms follow the SMILES beside them. Bip(4'-COOH) = N[C@@H](Cc1ccc(-c2ccc(C(=O)O)cc2)cc1)C(=O)O; Bip(4'-NHAc) = CC(=O)Nc1ccc(-c2ccc(C[C@H](N)C(=O)O)cc2)cc1; Ala(morpholin-4-yl) = N[C@@H](CN1CCOCC1)C(=O)O; Phe(3-CONH2) = NC(=O)c1cccc(C[C@H](N)C(=O)O)c1; Bip = N[C@@H](Cc1ccc(-c2ccccc2)cc1)C(=O)O; 2Pal = N[C@@H](Cc1ccccn1)C(=O)O; Tic = O=C(O)[C@@H]1Cc2ccccc2CN1; 2Thi = N[C@@H](Cc1cccs1)C(=O)O; Cha = N[C@@H](CC1CCCCC1)C(=O)O; Chg = N[C@H](C(=O)O)C1CCCCC1; Tle = CC(C)(C)[C@H](N)C(=O)O; Aze = O=C(O)[C@@H]1CCN1; Sar = CNCC(=O)O

Molecular target: TNFα (Homo sapiens, UniProt P01375)
Sequence (P01375 77-233 limits assumed): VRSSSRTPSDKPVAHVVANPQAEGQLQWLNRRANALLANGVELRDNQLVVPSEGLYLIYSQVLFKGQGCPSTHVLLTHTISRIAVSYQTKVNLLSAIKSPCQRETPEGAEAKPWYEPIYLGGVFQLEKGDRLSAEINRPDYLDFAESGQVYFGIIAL
Assay: TNF-Induced HEK-Blue Assay
Assay type: cell-based
Settings: HEK-Blue-CD40L cells, NF-kB-driven secreted alkaline phosphatase reporter; TNFα 0.5 ng/ml; 18 h; read-out: TNF induced HEK-Blue assay IC50 value

IC50	Structure (SMILES)
< 50 nM	CC(=O)Nc1ccc(-c2ccc(C[C@@H]3NC(=O)[C@H](Cc4ccc(-c5ccccc5)cc4)NC(=O)[C@H](C(C)(C)C)NC(=O)CSC[C@@H](C(=O)NCC(N)=O)NC(=O)[C@H](CC(C)C)NC(=O)[C@H](Cc4cccs4)NC(=O)[C@H](C(C)C)NC(=O)[C@@H]4CCCN4C(=O)[C@H](C(C)C)NC(=O)[C@@H](CCCNC(=N)N)NC(=O)[C@H](CC(=O)O)NC(=O)[C@H](Cc4ccc(O)cc4)NC(=O)CN(C)C3=O)cc2)cc1 [Example 259] ({CH2CO}-[Tle][Bip][Bip(4'-NHAc)][Sar]YD[dR]VPV[2Thi]LCG-NH2; thioether N-13)
< 50 nM	CC[C@H](C)[C@@H]1NC(=O)[C@@H](CCCNC(=N)N)NC(=O)[C@H](CC(=O)O)NC(=O)[C@H](Cc2ccc(O)cc2)NC(=O)CN(C)C(=O)[C@H](Cc2ccc(-c3ccc(NC(C)=O)cc3)cc2)NC(=O)[C@H](Cc2ccc(-c3ccccc3)cc2)NC(=O)[C@H](C(C)(C)C)NC(=O)CSC[C@@H](C(=O)NCC(N)=O)NC(=O)[C@H](CC(C)C)NC(=O)[C@H](Cc2cccs2)NC(=O)[C@H](C(C)C)NC(=O)[C@@H]2CCCN2C1=O [Example 260] ({CH2CO}-[Tle][Bip][Bip(4'-NHAc)][Sar]YD[dR]IPV[2Thi]LCG-NH2; thioether N-13)
< 50 nM	CC(=O)Nc1ccc(-c2ccc(C[C@@H]3NC(=O)[C@H](Cc4ccc(-c5ccc(C(=O)O)cc5)cc4)NC(=O)[C@H](C(C)(C)C)NC(=O)CSC[C@@H](C(=O)NCC(N)=O)NC(=O)[C@H](CC(C)C)NC(=O)[C@H](Cc4cnc[nH]4)NC(=O)[C@H](C(C)C)NC(=O)[C@@H]4CCCN4C(=O)[C@H](C(C)C)NC(=O)[C@@H](CCCNC(=N)N)NC(=O)[C@H](CC(=O)O)NC(=O)[C@H](Cc4ccccc4)NC(=O)CN(C)C3=O)cc2)cc1 [Example 261] ({CH2CO}-[Tle][Bip(4'-COOH)][Bip(4'-NHAc)][Sar]FD[dR]VPVHLCG-NH2; thioether N-13)
50 to 200 nM	CC[C@H](C)[C@@H]1NC(=O)[C@@H](CCCNC(=N)N)NC(=O)[C@H](CC(=O)O)NC(=O)[C@H](Cc2ccccn2)NC(=O)CN(C)C(=O)[C@H](Cc2ccc(-c3ccc(NC(C)=O)cc3)cc2)NC(=O)[C@H](Cc2ccc(-c3ccccc3)cc2)NC(=O)[C@H](C(C)(C)C)NC(=O)CSC[C@@H](C(=O)NCC(N)=O)NC(=O)[C@H](CC(C)C)NC(=O)[C@H](Cc2cccc(C(N)=O)c2)NC(=O)[C@H](C(C)C)NC(=O)[C@@H]2CCCN2C1=O [Example 262] ({CH2CO}-[Tle][Bip][Bip(4'-NHAc)][Sar][2Pal]D[dR]IPV[Phe(3-CONH2)]LCG-NH2; thioether N-13)
50 to 200 nM	CC(=O)Nc1ccc(-c2ccc(C[C@@H]3NC(=O)[C@H](Cc4ccc(-c5ccccc5)cc4)NC(=O)[C@H](C(C)(C)C)NC(=O)CSC[C@@H](C(=O)NCC(N)=O)NC(=O)[C@H](CC(C)C)NC(=O)[C@H](Cc4ccccc4)NC(=O)[C@H](C(C)C)NC(=O)[C@@H]4CCCN4C(=O)[C@H](C(C)C)NC(=O)[C@@H](CCCNC(=N)N)NC(=O)[C@H](CC(=O)O)NC(=O)[C@H](Cc4ccc(O)cc4)NC(=O)CN(C)C3=O)cc2)cc1 [Example 263] ({CH2CO}-[Tle][Bip][Bip(4'-NHAc)][Sar]YD[dR]VPVFLCG-NH2; thioether N-13)
50 to 200 nM	CC[C@H](C)[C@@H]1NC(=O)[C@@H](CCCNC(=N)N)NC(=O)[C@H](CC(=O)O)NC(=O)[C@H](Cc2ccc(O)cc2)NC(=O)CN(C)C(=O)[C@H](Cc2ccc(-c3ccc(NC(C)=O)cc3)cc2)NC(=O)[C@H](Cc2ccc(-c3ccccc3)cc2)NC(=O)[C@H](C(C)(C)C)NC(=O)CSC[C@@H](C(=O)NCC(N)=O)NC(=O)[C@H](CC(C)C)NC(=O)[C@H](Cc2ccccc2)NC(=O)[C@H](C(C)C)NC(=O)[C@@H]2CCCN2C1=O [Example 264] ({CH2CO}-[Tle][Bip][Bip(4'-NHAc)][Sar]YD[dR]IPVFLCG-NH2; thioether N-13)
50 to 200 nM	CC(=O)Nc1ccc(-c2ccc(C[C@@H]3NC(=O)[C@H](Cc4ccc(-c5ccc(C(=O)O)cc5)cc4)NC(=O)[C@H](C(C)(C)C)NC(=O)CSC[C@@H](C(=O)NCC(N)=O)NC(=O)[C@H](CC(C)C)NC(=O)[C@H](Cc4ccc(O)cc4)NC(=O)[C@H](C(C)C)NC(=O)[C@@H]4CCCN4C(=O)[C@H](C(C)C)NC(=O)[C@@H](CCCNC(=N)N)NC(=O)[C@H](CC(=O)O)NC(=O)[C@@H]4CCCN4C(=O)CN(C)C3=O)cc2)cc1 [Example 265] ({CH2CO}-[Tle][Bip(4'-COOH)][Bip(4'-NHAc)][Sar]PD[dR]VPVYLCG-NH2; thioether N-13)
50 to 200 nM	CC(=O)Nc1ccc(-c2ccc(C[C@@H]3NC(=O)[C@H](Cc4ccc(-c5ccc(C(=O)O)cc5)cc4)NC(=O)[C@H](C(C)(C)C)NC(=O)CSC[C@@H](C(=O)NCC(N)=O)NC(=O)[C@H](CC(C)C)NC(=O)[C@H](Cc4ccc(O)cc4)NC(=O)[C@H](C(C)C)NC(=O)[C@@H]4CCN4C(=O)[C@H](C(C)C)NC(=O)[C@@H](CCCNC(=N)N)NC(=O)[C@H](CC(=O)O)NC(=O)[C@@H]4CCCN4C(=O)CN(C)C3=O)cc2)cc1 [Example 266] ({CH2CO}-[Tle][Bip(4'-COOH)][Bip(4'-NHAc)][Sar]PD[dR]V[Aze]VYLCG-NH2; thioether N-13)
50 to 200 nM	CC[C@H](C)[C@@H]1NC(=O)[C@@H](CCCNC(=N)N)NC(=O)[C@H](CC(=O)O)NC(=O)[C@@H]2CCCN2C(=O)CN(C)C(=O)[C@H](Cc2ccc(-c3ccc(NC(C)=O)cc3)cc2)NC(=O)[C@H](Cc2ccc(-c3ccccc3)cc2)NC(=O)[C@H](C(C)(C)C)NC(=O)CSC[C@@H](C(=O)NCC(N)=O)NC(=O)[C@H](CC(C)C)NC(=O)[C@H](Cc2ccc(O)cc2)NC(=O)[C@H](C(C)C)NC(=O)[C@@H]2CCCN2C1=O [Example 267] ({CH2CO}-[Tle][Bip][Bip(4'-NHAc)][Sar]PD[dR]IPVYLCG-NH2; thioether N-13)
< 50 nM	CC[C@H](C)[C@@H]1NC(=O)[C@@H](CCCNC(=N)N)NC(=O)[C@H](CC(=O)O)NC(=O)[C@H](Cc2ccccc2)NC(=O)CN(C)C(=O)[C@H](Cc2ccc(-c3ccc(NC(C)=O)cc3)cc2)NC(=O)[C@H](Cc2ccc(-c3ccc(C(=O)O)cc3)cc2)NC(=O)[C@H](C(C)(C)C)NC(=O)CSC[C@@H](C(=O)NCC(N)=O)NC(=O)[C@H](CC(C)C)NC(=O)[C@H](CCCNC(=N)N)NC(=O)[C@H](C2CCCCC2)NC(=O)[C@@H]2CCCN2C1=O [Example 268] ({CH2CO}-[Tle][Bip(4'-COOH)][Bip(4'-NHAc)][Sar]FD[dR]IP[Chg]RLCG-NH2; thioether N-13)
50 to 200 nM	CC[C@H](C)[C@@H]1NC(=O)[C@@H](CCCNC(=N)N)NC(=O)[C@H](CC(=O)O)NC(=O)[C@@H]2CCCN2C(=O)CN(C)C(=O)[C@H](Cc2ccc(-c3ccc(NC(C)=O)cc3)cc2)NC(=O)[C@H](Cc2ccc(-c3ccc(C(=O)O)cc3)cc2)NC(=O)[C@H](C(C)(C)C)NC(=O)CSC[C@@H](C(=O)NCC(N)=O)NC(=O)[C@H](CC(C)C)NC(=O)[C@H](Cc2ccc(O)cc2)NC(=O)[C@H](C(C)C)NC(=O)[C@@H]2CCCN2C1=O [Example 269] ({CH2CO}-[Tle][Bip(4'-COOH)][Bip(4'-NHAc)][Sar]PD[dR]IPVYLCG-NH2; thioether N-13)
50 to 200 nM	CC[C@H](C)[C@@H]1NC(=O)[C@@H](CCCNC(=N)N)NC(=O)[C@H](CC(=O)O)NC(=O)[C@@H]2CCCN2C(=O)CN(C)C(=O)[C@H](Cc2ccc(-c3ccc(NC(C)=O)cc3)cc2)NC(=O)[C@H](Cc2ccc(-c3ccc(C(=O)O)cc3)cc2)NC(=O)[C@H](C(C)(C)C)NC(=O)CSC[C@@H](C(=O)NCC(N)=O)NC(=O)[C@H](CC(C)C)NC(=O)[C@H](Cc2ccc(O)cc2)NC(=O)[C@H](C2CCCCC2)NC(=O)[C@@H]2CCCN2C1=O [Example 270] ({CH2CO}-[Tle][Bip(4'-COOH)][Bip(4'-NHAc)][Sar]PD[dR]IP[Chg]YLCG-NH2; thioether N-13)
50 to 200 nM	CC(=O)Nc1ccc(-c2ccc(C[C@@H]3NC(=O)[C@H](Cc4ccc(-c5ccc(C(=O)O)cc5)cc4)NC(=O)[C@H](CC4CCCCC4)NC(=O)CSC[C@@H](C(=O)NCC(N)=O)NC(=O)[C@H](CC(C)C)NC(=O)[C@H](Cc4cnc[nH]4)NC(=O)[C@H](C(C)C)NC(=O)[C@@H]4CCN4C(=O)[C@H](C(C)C)NC(=O)[C@@H](CCCNC(=N)N)NC(=O)[C@H](CC(=O)O)NC(=O)[C@H](Cc4ccc(O)cc4)NC(=O)CN(C)C3=O)cc2)cc1 [Example 271] ({CH2CO}-[Cha][Bip(4'-COOH)][Bip(4'-NHAc)][Sar]YD[dR]V[Aze]VHLCG-NH2; thioether N-13)
50 to 200 nM	CC(=O)Nc1ccc(-c2ccc(C[C@@H]3NC(=O)[C@H](Cc4ccc(-c5ccc(C(=O)O)cc5)cc4)NC(=O)[C@H](CC4CCCCC4)NC(=O)CSC[C@@H](C(=O)NCC(N)=O)NC(=O)[C@H](CC(C)C)NC(=O)[C@H](Cc4cnc[nH]4)NC(=O)[C@H](C4CCCCC4)NC(=O)[C@@H]4CCN4C(=O)[C@H](C(C)C)NC(=O)[C@@H](CCCNC(=N)N)NC(=O)[C@H](CC(=O)O)NC(=O)[C@H](Cc4cnc[nH]4)NC(=O)CN(C)C3=O)cc2)cc1 [Example 272] ({CH2CO}-[Cha][Bip(4'-COOH)][Bip(4'-NHAc)][Sar]HD[dR]V[Aze][Chg]HLCG-NH2; thioether N-13)
< 50 nM	CC(=O)Nc1ccc(-c2ccc(C[C@@H]3NC(=O)[C@H](Cc4ccc(-c5ccccc5)cc4)NC(=O)[C@H](CN4CCOCC4)NC(=O)CSC[C@@H](C(=O)NCC(N)=O)NC(=O)[C@H](CC(C)C)NC(=O)[C@H](Cc4cnc[nH]4)NC(=O)[C@H](C(C)C)NC(=O)[C@@H]4CCN4C(=O)[C@H](C(C)C)NC(=O)[C@@H](CCCNC(=N)N)NC(=O)[C@H](CC(=O)O)NC(=O)[C@H](Cc4ccc(O)cc4)NC(=O)CN(C)C3=O)cc2)cc1 [Example 273] ({CH2CO}-[Ala(morpholin-4-yl)][Bip][Bip(4'-NHAc)][Sar]YD[dR]V[Aze]VHLCG-NH2; thioether N-13)
< 50 nM	CC[C@H](C)[C@@H]1NC(=O)[C@@H](CCCNC(=N)N)NC(=O)[C@H](CC(=O)O)NC(=O)[C@H](Cc2cnc[nH]2)NC(=O)CN(C)C(=O)[C@H](Cc2ccc(-c3ccc(NC(C)=O)cc3)cc2)NC(=O)[C@H](Cc2ccc(-c3ccc(C(=O)O)cc3)cc2)NC(=O)[C@H](CC2CCCCC2)NC(=O)CSC[C@@H](C(=O)NCC(N)=O)NC(=O)[C@H](CC(C)C)NC(=O)[C@H](Cc2cnc[nH]2)NC(=O)[C@H](C(C)C)NC(=O)[C@@H]2Cc3ccccc3CN2C1=O [Example 274] ({CH2CO}-[Cha][Bip(4'-COOH)][Bip(4'-NHAc)][Sar]HD[dR]I[Tic]VHLCG-NH2; thioether N-13)
